These results are taken from ChEMBL document CHEMBL3217425, “Structure-based design, synthesis, and profiling of a -tryptase inhibitor with a spiro-piperidineamide scaffold, benzylamine P1 group, and a substituted indole P4 group” (Medchemcomm, 2011).

Structures are written as SMILES.

Series [1] deals with T1, SSAO (amine oxidase [copper-containing] 3) (Homo sapiens, UniProt Q16853).
T1 sequence (Q16853 whole entry): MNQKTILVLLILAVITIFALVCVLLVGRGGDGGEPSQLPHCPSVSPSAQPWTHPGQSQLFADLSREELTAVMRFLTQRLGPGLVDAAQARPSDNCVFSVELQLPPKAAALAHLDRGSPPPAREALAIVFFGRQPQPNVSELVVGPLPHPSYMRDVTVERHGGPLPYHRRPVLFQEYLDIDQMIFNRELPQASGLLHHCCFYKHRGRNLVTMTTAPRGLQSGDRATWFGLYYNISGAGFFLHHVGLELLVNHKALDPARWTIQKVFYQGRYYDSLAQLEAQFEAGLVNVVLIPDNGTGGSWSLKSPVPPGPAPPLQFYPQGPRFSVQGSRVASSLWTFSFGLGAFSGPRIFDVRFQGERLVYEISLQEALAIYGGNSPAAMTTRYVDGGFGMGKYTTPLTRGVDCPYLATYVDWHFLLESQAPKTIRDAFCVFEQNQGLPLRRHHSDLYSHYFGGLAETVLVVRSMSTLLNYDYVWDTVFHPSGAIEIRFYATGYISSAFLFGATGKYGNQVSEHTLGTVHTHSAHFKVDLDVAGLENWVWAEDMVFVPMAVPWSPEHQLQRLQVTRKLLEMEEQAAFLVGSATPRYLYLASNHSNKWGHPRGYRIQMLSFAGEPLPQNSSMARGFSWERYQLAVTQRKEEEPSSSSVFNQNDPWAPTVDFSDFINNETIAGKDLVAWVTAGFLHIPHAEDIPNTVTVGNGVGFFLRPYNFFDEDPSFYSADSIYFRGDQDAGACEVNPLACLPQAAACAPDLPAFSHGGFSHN
Nature of the series: Stability of the compound assessed as human full length SSAO-mediated drug metabolism expressed in CHO cells measured as compound remaining after 20 mins. It is filed as ADME, cell-based. The settings on record: CHO cells expressing human full length SSAO, read-out: Stability.

The nature of series [2]: Drug metabolism in rat liver microsomes after 20 mins. The settings on record: read-out: Drug metabolism. It is filed as ADME.
Series [3] can be described thus: Drug metabolism in guinea pig liver microsomes after 20 mins. The format is ADME, Cavia porcellus. The settings on record: read-out: Drug metabolism.
Series [4] can be described thus: Drug metabolism in human liver microsomes after 20 mins. It is filed as ADME. The settings on record: read-out: Drug metabolism.
Series [5] deals with T2, hERG (KCNH2) (Homo sapiens, UniProt Q12809). Nature of the series: Inhibition of human ERG channel expressed in CHO cells at 1 uM. The format is cell-based. The settings on record: CHO cells expressing human ERG channel.
The target in series [6] is T2, hERG (KCNH2). The series is described as follows: Inhibition of human ERG channel expressed in CHO cells at 10 uM. The format is cell-based. The settings on record: CHO cells expressing human ERG channel.

T2 sequence (Q12809 whole entry): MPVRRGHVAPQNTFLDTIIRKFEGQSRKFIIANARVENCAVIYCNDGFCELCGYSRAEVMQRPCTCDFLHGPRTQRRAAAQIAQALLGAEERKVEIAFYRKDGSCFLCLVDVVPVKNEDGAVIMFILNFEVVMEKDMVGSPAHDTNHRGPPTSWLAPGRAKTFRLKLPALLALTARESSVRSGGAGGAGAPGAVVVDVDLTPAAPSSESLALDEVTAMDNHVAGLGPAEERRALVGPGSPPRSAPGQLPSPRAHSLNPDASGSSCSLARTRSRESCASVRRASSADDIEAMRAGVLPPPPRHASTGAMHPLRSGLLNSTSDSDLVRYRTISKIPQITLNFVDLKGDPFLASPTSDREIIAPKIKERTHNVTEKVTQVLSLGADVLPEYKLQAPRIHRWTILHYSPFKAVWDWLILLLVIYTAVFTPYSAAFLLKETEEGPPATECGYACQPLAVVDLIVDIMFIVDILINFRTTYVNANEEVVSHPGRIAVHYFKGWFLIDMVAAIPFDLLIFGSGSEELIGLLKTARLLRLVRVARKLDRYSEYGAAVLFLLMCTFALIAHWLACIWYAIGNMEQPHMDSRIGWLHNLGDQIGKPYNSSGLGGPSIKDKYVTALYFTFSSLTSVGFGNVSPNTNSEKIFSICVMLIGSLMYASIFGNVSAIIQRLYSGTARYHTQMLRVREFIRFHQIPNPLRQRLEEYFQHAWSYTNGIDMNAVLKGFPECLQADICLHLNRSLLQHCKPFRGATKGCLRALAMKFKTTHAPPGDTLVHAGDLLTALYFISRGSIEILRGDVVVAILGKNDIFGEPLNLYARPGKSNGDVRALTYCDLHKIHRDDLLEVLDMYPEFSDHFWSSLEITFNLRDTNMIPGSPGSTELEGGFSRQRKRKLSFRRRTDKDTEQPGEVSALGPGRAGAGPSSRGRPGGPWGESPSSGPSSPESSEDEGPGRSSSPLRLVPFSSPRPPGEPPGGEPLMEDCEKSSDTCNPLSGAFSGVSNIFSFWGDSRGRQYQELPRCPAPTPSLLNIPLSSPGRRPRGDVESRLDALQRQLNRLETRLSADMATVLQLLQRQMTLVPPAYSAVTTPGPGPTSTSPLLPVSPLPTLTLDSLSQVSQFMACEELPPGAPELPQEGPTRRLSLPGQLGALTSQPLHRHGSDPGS

Turning to `NCc1cccc(C2CCN(C(=O)c3ccc(C#Cc4ccccc4F)o3)CC2)c1`, in series [1], the remaining at 20 min was 8%.
Take `COCCn1cc(C(=O)N2CCC(c3cc(CN)ccc3F)CC2)c2cccc(F)c21`: the remaining at 20 min in series [1] stood at 78%. Also, the values for the metabolised at 20 min in series [2], in series [3] and in series [4] were 21%, 38% and 71%, respectively.
Consider `COCCn1cc(C(=O)N2CCC3(CC2)COc2ccc(CN)cc23)c2cccc(F)c21`, for which the remaining at 20 min in series [1] turned out to be 89%. In series [5], this compound yielded an inhibition at 1 µM of 11%. In addition, the metabolised at 20 min in series [2] is 10%; in series [3] it was 12%; in series [4] it was 17%. In series [6], this compound returned an inhibition at 10 µM of 16%.
